Source: publication PMC10746543, “Design principles for cyclin K molecular glue degraders” (Nature Chemical Biology, 2023)
Several values for one entry are separate records, joined by “and”; a condition that tells them apart may be missing. Equal entries are not always repeated. Where two headings read alike, the source gives them in different places. Each block holds one compound with its values, some of them ahead of it.

How the values were obtained:
[1] = target: T1, CDK9–cyclin T (Homo sapiens, UniProt P50750); test: Lanthascreen kinase binding assay, CDK9
T1 construct: purchased Thermo Fisher
Experimental: Lanthascreen experiments were performed using commercially available reagents (Thermo Fisher) and according to the manufacturer’s instructions.

[2] = target: T2, CDK12–cyclin K and DDB1 (Homo sapiens, UniProt Q16531+Q9NYV4, K965R); test: TR-FRET Kd determination, quadratic fit, 50 nM or 10 nM CDK12–cyclin K; assay type: binding
T2 construct: His6–CDK12 (a.a. 713–1,052); full-length or beta-propeller B domain deletion (ΔBPB: a.a. 396–705 deleted) constructs of His6–DDB1ΔBPB, StrepII–Avi–DDB1, or His6–Spy–DDB1; made in house; host or cells: Trichoplusia ni High Five insect cells (baculovirus)
From the text: Equation (2) is a quadratic binding equation used for Kd determination,where Top and Bottom refer to the curve plateaus. […]

[3] = target: CDK12; set-up: method as in PMID 30065029; conditions: read-out: CDK12 binding affinity; cited from earlier work
[4] = 10 nM CDK12-cyclin K + 100 nM DDB1, n = 1

T1 sequence (P50750 whole entry): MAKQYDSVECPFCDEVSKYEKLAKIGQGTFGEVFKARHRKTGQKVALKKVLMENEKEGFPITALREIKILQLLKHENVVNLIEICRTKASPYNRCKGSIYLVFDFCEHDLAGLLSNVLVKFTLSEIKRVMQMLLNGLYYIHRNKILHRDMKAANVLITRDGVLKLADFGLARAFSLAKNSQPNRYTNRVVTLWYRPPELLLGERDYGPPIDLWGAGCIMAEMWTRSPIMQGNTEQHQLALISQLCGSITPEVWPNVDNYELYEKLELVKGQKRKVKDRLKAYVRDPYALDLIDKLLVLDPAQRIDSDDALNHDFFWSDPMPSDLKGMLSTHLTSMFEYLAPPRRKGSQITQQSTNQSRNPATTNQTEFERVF
T1 sequence (O60563 whole entry partner): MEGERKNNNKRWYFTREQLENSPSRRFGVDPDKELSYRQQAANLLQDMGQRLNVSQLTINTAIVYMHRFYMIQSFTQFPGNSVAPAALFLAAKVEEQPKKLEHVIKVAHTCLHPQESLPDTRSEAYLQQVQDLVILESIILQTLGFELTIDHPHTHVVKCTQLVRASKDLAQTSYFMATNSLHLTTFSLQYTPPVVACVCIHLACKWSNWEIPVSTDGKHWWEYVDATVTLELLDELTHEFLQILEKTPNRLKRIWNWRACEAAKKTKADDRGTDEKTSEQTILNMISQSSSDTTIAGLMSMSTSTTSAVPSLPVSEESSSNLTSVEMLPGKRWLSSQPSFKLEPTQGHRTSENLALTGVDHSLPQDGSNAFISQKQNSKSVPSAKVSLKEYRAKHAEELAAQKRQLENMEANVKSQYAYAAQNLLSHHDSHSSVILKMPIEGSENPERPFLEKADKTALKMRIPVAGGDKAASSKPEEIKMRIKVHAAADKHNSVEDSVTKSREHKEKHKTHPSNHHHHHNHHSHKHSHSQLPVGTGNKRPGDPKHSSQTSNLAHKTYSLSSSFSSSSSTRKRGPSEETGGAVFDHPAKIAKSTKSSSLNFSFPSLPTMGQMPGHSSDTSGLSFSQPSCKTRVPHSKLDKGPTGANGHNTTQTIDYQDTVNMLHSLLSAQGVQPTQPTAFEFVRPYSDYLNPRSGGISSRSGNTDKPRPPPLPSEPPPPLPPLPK
T2 sequence (Q9NYV4 713-1052 K965R): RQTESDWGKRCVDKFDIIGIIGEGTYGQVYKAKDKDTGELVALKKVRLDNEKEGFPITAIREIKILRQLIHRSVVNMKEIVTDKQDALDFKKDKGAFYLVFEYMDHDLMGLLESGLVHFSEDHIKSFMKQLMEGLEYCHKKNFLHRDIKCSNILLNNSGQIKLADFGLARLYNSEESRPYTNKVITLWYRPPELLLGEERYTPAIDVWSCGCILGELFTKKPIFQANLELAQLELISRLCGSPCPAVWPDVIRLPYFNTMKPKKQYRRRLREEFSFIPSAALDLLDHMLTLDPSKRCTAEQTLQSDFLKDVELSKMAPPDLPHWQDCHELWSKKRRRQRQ
T2 sequence (O75909 1-267 partner): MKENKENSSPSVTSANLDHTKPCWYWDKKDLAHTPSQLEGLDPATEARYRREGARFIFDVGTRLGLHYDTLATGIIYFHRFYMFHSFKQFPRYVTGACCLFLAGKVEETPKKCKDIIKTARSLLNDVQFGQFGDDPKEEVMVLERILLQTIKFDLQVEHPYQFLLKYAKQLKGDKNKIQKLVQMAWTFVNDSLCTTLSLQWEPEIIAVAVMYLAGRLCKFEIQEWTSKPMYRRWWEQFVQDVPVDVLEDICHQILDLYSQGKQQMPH
T2 sequence (Q16531 whole entry): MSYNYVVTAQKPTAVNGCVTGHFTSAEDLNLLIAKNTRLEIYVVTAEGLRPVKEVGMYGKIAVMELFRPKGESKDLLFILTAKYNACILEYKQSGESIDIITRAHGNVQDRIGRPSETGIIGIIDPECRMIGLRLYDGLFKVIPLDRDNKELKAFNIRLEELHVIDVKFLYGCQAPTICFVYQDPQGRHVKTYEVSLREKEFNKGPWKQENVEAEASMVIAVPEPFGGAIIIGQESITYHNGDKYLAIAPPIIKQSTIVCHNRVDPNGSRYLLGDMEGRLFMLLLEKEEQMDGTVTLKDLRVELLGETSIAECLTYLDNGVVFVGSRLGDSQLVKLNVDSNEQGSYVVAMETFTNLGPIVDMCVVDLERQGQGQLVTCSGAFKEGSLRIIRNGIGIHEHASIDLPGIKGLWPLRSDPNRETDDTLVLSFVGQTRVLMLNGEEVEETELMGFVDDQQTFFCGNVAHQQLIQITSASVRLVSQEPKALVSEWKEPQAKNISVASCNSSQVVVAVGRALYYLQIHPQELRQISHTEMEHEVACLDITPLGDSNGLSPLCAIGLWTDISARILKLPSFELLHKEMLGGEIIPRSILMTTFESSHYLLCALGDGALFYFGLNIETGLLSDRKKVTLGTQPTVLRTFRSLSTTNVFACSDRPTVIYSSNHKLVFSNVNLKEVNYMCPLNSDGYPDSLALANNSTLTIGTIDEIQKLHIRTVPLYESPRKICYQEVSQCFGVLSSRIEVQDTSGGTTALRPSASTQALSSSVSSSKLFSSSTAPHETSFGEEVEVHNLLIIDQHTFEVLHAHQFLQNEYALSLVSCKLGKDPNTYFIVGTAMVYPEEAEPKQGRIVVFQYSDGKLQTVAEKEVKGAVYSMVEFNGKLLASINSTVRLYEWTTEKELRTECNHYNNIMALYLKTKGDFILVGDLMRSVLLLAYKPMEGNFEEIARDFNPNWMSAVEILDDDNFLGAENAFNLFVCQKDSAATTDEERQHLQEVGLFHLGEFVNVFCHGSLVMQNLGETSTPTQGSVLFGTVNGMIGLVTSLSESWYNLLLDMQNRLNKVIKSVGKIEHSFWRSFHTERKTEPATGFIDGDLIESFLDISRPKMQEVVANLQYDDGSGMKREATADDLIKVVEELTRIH

IC50 ([1]; Supplementary Table 2, read-out: Lanthascreen IC50 [nM] CDK9): 557 nM
Lanthascreen TR-FRET signal (raw ratio), sheet CDK9 ([1]; compound 1.02544 nM, first titration set (r1), duplicates): 0.01409 and 0.01452
Lanthascreen TR-FRET signal (raw ratio), sheet CDK9 ([1]; compound 3.15521 nM, first titration set (r1), duplicates): 0.01533 and 0.01444
Lanthascreen TR-FRET signal (raw ratio), sheet CDK9 ([1]; compound 9.46563 nM, first titration set (r1), duplicates): 0.01086 and 0.01492
Lanthascreen TR-FRET signal (raw ratio), sheet CDK9 ([1]; compound 31.5521 nM, first titration set (r1), duplicates): 0.01278 and 0.01412
Lanthascreen TR-FRET signal (raw ratio), sheet CDK9 ([1]; compound 99.3891 nM, first titration set (r1), duplicates): 0.01498 and 0.0129
Lanthascreen TR-FRET signal (raw ratio), sheet CDK9 ([1]; compound 315.521 nM, first titration set (r1), duplicates): 0.01059 and 0.008471
Lanthascreen TR-FRET signal (raw ratio), sheet CDK9 ([1]; compound 3155.21 nM, first titration set (r1), duplicates): 0.004926 and 0.00557
Lanthascreen TR-FRET signal (raw ratio), sheet CDK9 ([1]; compound 10002 nM, first titration set (r1), duplicates): 0.002868 and 0.004276
Kd [2, 4]: 0.2 ± 0.3 nM
TR-FRET Kd* [2, 4]: subnanomolar range
TR-FRET signal ([2]; 10 nM CDK12-cyclin K, compound 0.468 nM): 0.1115
TR-FRET signal ([2]; 10 nM CDK12-cyclin K, compound 2.16 nM): 0.172
TR-FRET signal ([2]; 10 nM CDK12-cyclin K, compound 3.6 nM): 0.3284
TR-FRET signal ([2]; 10 nM CDK12-cyclin K, compound 7.92 nM): 0.4288
TR-FRET signal ([2]; 10 nM CDK12-cyclin K, compound 15.84 nM): 0.4992
TR-FRET signal ([2]; 10 nM CDK12-cyclin K, compound 30.96 nM): 0.5275
TR-FRET signal ([2]; 10 nM CDK12-cyclin K, compound 62.6399 nM): 0.5247
TR-FRET signal ([2]; 10 nM CDK12-cyclin K, compound 125.279 nM): 0.5329
TR-FRET signal ([2]; 10 nM CDK12-cyclin K, compound 244.8 nM): 0.5439
TR-FRET signal ([2]; 10 nM CDK12-cyclin K, compound 993.6 nM): 0.5387
TR-FRET signal ([2]; 10 nM CDK12-cyclin K, compound 2001.6 nM): 0.5235
Kd ([2]; 50 nM CDK12-cyclin K + 100 nM DDB1, n = 1): 2 ± 1 nM
TR-FRET signal ([2]; 50 nM CDK12-cyclin K, compound 0.468 nM): 0.2245
TR-FRET signal ([2]; 50 nM CDK12-cyclin K, compound 2.16 nM): 0.505
TR-FRET signal ([2]; 50 nM CDK12-cyclin K, compound 3.6 nM): 0.4237
TR-FRET signal ([2]; 50 nM CDK12-cyclin K, compound 7.92 nM): 0.5318
TR-FRET signal ([2]; 50 nM CDK12-cyclin K, compound 15.84 nM): 0.9093
TR-FRET signal ([2]; 50 nM CDK12-cyclin K, compound 30.96 nM): 1.797
TR-FRET signal ([2]; 50 nM CDK12-cyclin K, compound 62.6399 nM): 2.967
TR-FRET signal ([2]; 50 nM CDK12-cyclin K, compound 125.279 nM): 3.159
TR-FRET signal ([2]; 50 nM CDK12-cyclin K, compound 244.8 nM): 3.183
TR-FRET signal ([2]; 50 nM CDK12-cyclin K, compound 993.6 nM): 3.081
TR-FRET signal ([2]; 50 nM CDK12-cyclin K, compound 2001.6 nM): 3.197
Compound: Cc1cc2nc(CNc3nc(N4CCN(C)CC4)nc4c(Br)cnn34)[nH]c2cc1C [DS73, reference compound]

IC50 ([1]; Lanthascreen, average, Extended Data Fig. 8, read-out: CDK9 IC50): 120 nM
Lanthascreen TR-FRET signal (raw ratio), sheet CDK9 ([1]; compound 0.038147 nM, fourth titration set (r37), triplicates): 0.0408 and 0.04808 and 0.04479
Lanthascreen TR-FRET signal (raw ratio), sheet CDK9 ([1]; compound 0.038147 nM, second titration set (r13), duplicates): 0.01436 and 0.01414
Lanthascreen TR-FRET signal (raw ratio), sheet CDK9 ([1]; compound 0.152588 nM, fourth titration set (r37), triplicates): 0.0398 and 0.0481 and 0.0499
Lanthascreen TR-FRET signal (raw ratio), sheet CDK9 ([1]; compound 0.152588 nM, second titration set (r13), duplicates): 0.01385 and 0.01395
Lanthascreen TR-FRET signal (raw ratio), sheet CDK9 ([1]; compound 0.610352 nM, fourth titration set (r37), triplicates): 0.03905 and 0.04639 and 0.04821
Lanthascreen TR-FRET signal (raw ratio), sheet CDK9 ([1]; compound 0.610352 nM, second titration set (r13), duplicates): 0.01357 and 0.01395
Lanthascreen TR-FRET signal (raw ratio), sheet CDK9 ([1]; compound 9.76563 nM, fourth titration set (r37), triplicates): 0.03561 and 0.04225 and 0.04097
Lanthascreen TR-FRET signal (raw ratio), sheet CDK9 ([1]; compound 9.76563 nM, second titration set (r13), duplicates): 0.01332 and 0.01366
Lanthascreen TR-FRET signal (raw ratio), sheet CDK9 ([1]; compound 39.0625 nM, fourth titration set (r37), triplicates): 0.02645 and 0.03287 and 0.03192
Lanthascreen TR-FRET signal (raw ratio), sheet CDK9 ([1]; compound 39.0625 nM, second titration set (r13), duplicates): 0.01225 and 0.01118
Lanthascreen TR-FRET signal (raw ratio), sheet CDK9 ([1]; compound 156.25 nM, fourth titration set (r37), triplicates): 0.01751 and 0.01989 and 0.01852
Lanthascreen TR-FRET signal (raw ratio), sheet CDK9 ([1]; compound 156.25 nM, second titration set (r13), duplicates): 0.008604 and 0.00887
Lanthascreen TR-FRET signal (raw ratio), sheet CDK9 ([1]; compound 625 nM, fourth titration set (r37), triplicates): 0.008779 and 0.01074 and 0.01058
Lanthascreen TR-FRET signal (raw ratio), sheet CDK9 ([1]; compound 625 nM, second titration set (r13), duplicates): 0.005642 and 0.005316
Lanthascreen TR-FRET signal (raw ratio), sheet CDK9 ([1]; compound 2500 nM, fourth titration set (r37), triplicates): 0.006189 and 0.006358 and 0.00654
Lanthascreen TR-FRET signal (raw ratio), sheet CDK9 ([1]; compound 2500 nM, second titration set (r13), duplicates): 0.00388 and 0.003855
Lanthascreen TR-FRET signal (raw ratio), sheet CDK9 ([1]; compound 10000 nM, fourth titration set (r37), triplicates): 0.00467 and 0.004911 and 0.00523
Lanthascreen TR-FRET signal (raw ratio), sheet CDK9 ([1]; compound 10000 nM, second titration set (r13), duplicates): 0.003154 and 0.003151
Compound: C[C@H](C(=O)Nc1nc2ccccc2[nH]1)N1Cc2ccccc2C1=O [compound 919278]
Kd [3]: 5600 nM
